Data published in ChEMBL document CHEMBL4823265, “Benzophenones from Betula alnoides with Antiausterity Activities against the PANC-1 Human Pancreatic Cancer Cell Line” (J Nat Prod, 2021).
The source made the active and inactive calls. The calls are words filed in the database; no cut-off is given here.

How the values were obtained:
PANC-1 [1] = assay: Inhibition of colony formation in human PANC-1 cells treated for 24 hrs followed by replacement with fresh DMEM medium and measured after 10 days by crystal violet staining based assay; format: functional, cell-based; conditions: dose 10-40 µM
PANC-1 [2] = assay: Cytotoxicity against human PANC-1 cells assessed as reduction in cell viability incubated for 24 hrs in nutrient-rich DMEM medium by CCK8 assay; format: cell-based; conditions: panc-1, 24 h
PANC-1 [3] = assay: Cytotoxicity against human PANC-1 cells assessed as ruptured cell membrane by measuring red fluorescence emission incubated for 24 hrs in nutrient deprived medium by ethidium bromide/acridine orange double staining based fluorescence microscopic analysis; format: functional; conditions: dose 5-10 µM
PANC-1 [4] = assay: Cytotoxicity against human PANC-1 cells assessed as membrane blebs by measuring red fluorescence emission incubated for 24 hrs in nutrient deprived medium by ethidium bromide/acridine orange double staining based fluorescence microscopic analysis; format: functional, cell-based; conditions: dose 5-10 µM
PANC-1 [5] = assay: Anti-austerity activity against human PANC-1 cells assessed as cell killing incubated for 24 hrs in nutrient deprived medium by CCK8 assay; format: functional
PANC-1 [6] = assay: Inhibition of colony formation in human PANC-1 cells at 10 to 40 uM treated for 24 hrs followed by replacement with fresh DMEM medium and measured after 10 days by crystal violet staining based assay relative to control; format: functional; conditions: dose 10-40 µM
PANC-1 [7] = assay: Cytotoxicity against human PANC-1 cells assessed as swollen cell morphology by measuring red fluorescence emission incubated for 24 hrs in nutrient deprived medium by ethidium bromide/acridine orange double staining based fluorescence microscopic analysis; format: functional; conditions: dose 5-10 µM
PANC-1 [8] = assay: Cytotoxicity against human PANC-1 cells assessed as cell shrinkage at 5 to 10 uM incubated in nutrient deprived medium measured every 15 mins for 8 hrs by time-lapse live imaging based analysis; format: functional; conditions: dose 5-10 µM
PANC-1 [9] = assay: Inhibition of colony formation in human PANC-1 cells at 40 uM treated for 24 hrs followed by replacement with fresh DMEM medium and measured after 10 days by crystal violet staining based assay relative to control; format: functional
PANC-1 [10] = assay: Cytotoxicity against human PANC-1 cells assessed as membrane blebbing at 10 uM incubated in nutrient deprived medium measured every 15 mins for 13 hrs by time-lapse live imaging based analysis; format: functional, cell-based
PANC-1 [11] = assay: Cytotoxicity against human PANC-1 cells assessed as inhibition of cell mobility at 5 to 10 uM incubated in nutrient deprived medium measured every 15 mins for 4 hrs by time-lapse live imaging based analysis; format: functional; conditions: dose 5-10 µM
PANC-1 [12] = assay: Cytotoxicity against human PANC-1 cells assessed as cell death at 10 uM incubated in nutrient deprived medium measured every 15 mins for 23 hrs by time-lapse live imaging based analysis; format: functional
PANC-1 [13] = assay: Inhibition of colony formation in human PANC-1 cells at 20 uM treated for 24 hrs followed by replacement with fresh DMEM medium and measured after 10 days by crystal violet staining based assay relative to control; format: functional

Compound	Activity (PANC-1 [2])	PC50 (PANC-1 [5]) [µM]	further results
CC(C)=CCC/C(C)=C/CC[C@@](C)(O)CCc1c(O)cc(O)c(C(=O)c2ccccc2)c1O	Non-Toxic	5.9	inhibition (PANC-1 [1]): Dose-Dependent Effect; Activity (PANC-1 [3]): Dose-Dependent Effect; Activity (PANC-1 [4]): Dose-Dependent Effect; inhibition (INH) (PANC-1 [6]): >60%; Activity (PANC-1 [7]): Dose-Dependent Effect
COc1cccc2c(=O)c3c(O)cccc3oc12	Non-Toxic	61	
O=c1c2ccc(O)cc2oc2ccc(O)cc12	Non-Toxic	45.2	
COc1cc2c(=O)c3ccccc3oc2cc1O	Non-Toxic	>100	
CC(C)=CCC/C(C)=C/CC/C(C)=C/Cc1c(O)cc(O)c(C(=O)c2ccccc2)c1O	Non-Toxic	8.3	
CC(C)(O)[C@@H]1CC[C@@]2(C)C[C@@H]1c1c(O)cc(O)c(C(=O)c3ccccc3)c1O2	Non-Toxic	4.9	Activity (PANC-1 [8]): Active; inhibition (PANC-1 [1]): Dose-Dependent Effect; inhibition at 40 µM (PANC-1 [9]): 64%; Activity (PANC-1 [10]): Active; Activity (PANC-1 [3]): Dose-Dependent Effect; Activity (PANC-1 [4]): Dose-Dependent Effect; Activity (PANC-1 [11]): Active; Activity (PANC-1 [12]): Active; inhibition at 20 µM (PANC-1 [13]): 45%; Activity (PANC-1 [7]): Dose-Dependent Effect
CC(C)=CCC/C(C)=C/CC[C@]1(C)CCc2c(O)cc(O)c(C(=O)c3ccccc3)c2O1	Non-Toxic	12.3	
CC(C)=CCC/C(C)=C/CC[C@@]1(C)Oc2c(c(O)cc(O)c2C(=O)c2ccccc2)C[C@H]1O	Non-Toxic	6.7	
O=C(c1ccccc1O)c1cc(O)ccc1O	Non-Toxic	42.5	
COc1cc(C[C@H]2C(=O)OC[C@@H]2Cc2ccc(OC)c(OC)c2)ccc1O [ARCTIGENIN]		0.7	
